Assay results published in patent US20080213250A1, “Use of Eph Receptor Inhibitors for the Treatment of Neurodegenerative Diseases” (priority 2004, published 2008).

Key:
EphA5 = EphA5 (Mus musculus, UniProt Q60629); test: Chemical proteomics pull-down with immobilized compound, LC-MS/MS identification; conditions: maximum in any chemical proteomics experiment
EphA7 = EphA7 (Mus musculus, UniProt Q61772); test: as above; conditions: maximum in any chemical proteomics experiment
TAP-tagged Eph kinases = test: Autophosphorylation of TAP-tagged Eph kinases in cells; type: cell-based; conditions: in cells (FIG. 2)
Method: Cells are plated in 6-well plates in growth medium (see above). To test potential modulators, preferably inhibitors, of Eph kinase tyrosine phosphorylation, cells are starved in serum-free medium for 4 h. Under these conditions, Eph-TAP kinase is partially constitutively phosphorylated-presumably through autophosphorylation that is commonly associated with over-expression of receptor tyrosine kinases. This feature is exploited to monitor the effect of Eph kinase modulators. Test compounds are diluted (from a stock in DMSO) in serum-free medium and added to cells for indicated times. Cells are chilled on ice and washed with ice-cold PBS. They are then lysed in 300 μl lysis buffer (50 mM Tris-HCl, 1% NP-40, 0.05% SDS, 100 mM NaCl, 1.5 mM MgCl2, 2 mM EDTA, 5% glycerol, pH 7.6) for 20 min at 4 °C and cleared by centrifugation at 16,100×g in a table-top centrifuge for 20 min.
Lysates are subsequently incubated with 20 μl pre-washed rabbit IgG beads (Sigma) for 2 h with constant agitation at 4° C. Beads are finally washed with 1 ml of lysis buffer and immobilized protein complexes are eluted by boiling in 40 μl SDS sample buffer.
Blot membranes are probed with monoclonal antibody 4G10 (Upstate Biotechnology) or with HRP-coupled PAP antibody (see above).

EphB1 = target: T1, EphB1 (Mus musculus, UniProt Q8CBF3); test: Chemical proteomics pull-down with immobilized compound, LC-MS/MS identification; conditions: maximum in any chemical proteomics experiment
T1 sequence (Q8CBF3 18-984): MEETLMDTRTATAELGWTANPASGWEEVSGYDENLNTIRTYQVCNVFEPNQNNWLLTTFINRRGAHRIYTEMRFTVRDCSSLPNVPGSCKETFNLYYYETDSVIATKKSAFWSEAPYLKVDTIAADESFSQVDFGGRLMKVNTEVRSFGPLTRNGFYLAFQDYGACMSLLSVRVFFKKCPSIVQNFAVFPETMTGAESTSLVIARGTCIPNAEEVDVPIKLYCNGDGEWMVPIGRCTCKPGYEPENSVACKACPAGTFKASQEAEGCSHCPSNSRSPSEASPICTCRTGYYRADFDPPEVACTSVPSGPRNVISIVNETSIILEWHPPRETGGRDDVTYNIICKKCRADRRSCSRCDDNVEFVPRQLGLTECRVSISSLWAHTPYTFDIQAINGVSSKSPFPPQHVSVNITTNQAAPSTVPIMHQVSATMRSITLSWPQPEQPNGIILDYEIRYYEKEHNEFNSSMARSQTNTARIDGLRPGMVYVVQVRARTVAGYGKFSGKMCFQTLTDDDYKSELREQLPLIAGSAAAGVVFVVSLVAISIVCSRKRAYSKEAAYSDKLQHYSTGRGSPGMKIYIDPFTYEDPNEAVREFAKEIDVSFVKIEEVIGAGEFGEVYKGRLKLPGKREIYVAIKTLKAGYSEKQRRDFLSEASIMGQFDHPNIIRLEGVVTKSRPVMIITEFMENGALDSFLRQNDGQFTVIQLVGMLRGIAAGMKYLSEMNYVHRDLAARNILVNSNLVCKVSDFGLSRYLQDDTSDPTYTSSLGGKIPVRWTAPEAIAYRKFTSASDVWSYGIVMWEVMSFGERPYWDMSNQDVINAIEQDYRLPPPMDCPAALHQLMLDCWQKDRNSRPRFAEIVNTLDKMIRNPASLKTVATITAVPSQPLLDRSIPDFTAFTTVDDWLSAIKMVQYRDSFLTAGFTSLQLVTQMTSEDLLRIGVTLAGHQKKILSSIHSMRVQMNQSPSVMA

EphA6 = target: T2, EphA6 (Mus musculus, UniProt Q62413); test: as above; conditions: maximum in any chemical proteomics experiment
T2 sequence (Q62413 23-1035): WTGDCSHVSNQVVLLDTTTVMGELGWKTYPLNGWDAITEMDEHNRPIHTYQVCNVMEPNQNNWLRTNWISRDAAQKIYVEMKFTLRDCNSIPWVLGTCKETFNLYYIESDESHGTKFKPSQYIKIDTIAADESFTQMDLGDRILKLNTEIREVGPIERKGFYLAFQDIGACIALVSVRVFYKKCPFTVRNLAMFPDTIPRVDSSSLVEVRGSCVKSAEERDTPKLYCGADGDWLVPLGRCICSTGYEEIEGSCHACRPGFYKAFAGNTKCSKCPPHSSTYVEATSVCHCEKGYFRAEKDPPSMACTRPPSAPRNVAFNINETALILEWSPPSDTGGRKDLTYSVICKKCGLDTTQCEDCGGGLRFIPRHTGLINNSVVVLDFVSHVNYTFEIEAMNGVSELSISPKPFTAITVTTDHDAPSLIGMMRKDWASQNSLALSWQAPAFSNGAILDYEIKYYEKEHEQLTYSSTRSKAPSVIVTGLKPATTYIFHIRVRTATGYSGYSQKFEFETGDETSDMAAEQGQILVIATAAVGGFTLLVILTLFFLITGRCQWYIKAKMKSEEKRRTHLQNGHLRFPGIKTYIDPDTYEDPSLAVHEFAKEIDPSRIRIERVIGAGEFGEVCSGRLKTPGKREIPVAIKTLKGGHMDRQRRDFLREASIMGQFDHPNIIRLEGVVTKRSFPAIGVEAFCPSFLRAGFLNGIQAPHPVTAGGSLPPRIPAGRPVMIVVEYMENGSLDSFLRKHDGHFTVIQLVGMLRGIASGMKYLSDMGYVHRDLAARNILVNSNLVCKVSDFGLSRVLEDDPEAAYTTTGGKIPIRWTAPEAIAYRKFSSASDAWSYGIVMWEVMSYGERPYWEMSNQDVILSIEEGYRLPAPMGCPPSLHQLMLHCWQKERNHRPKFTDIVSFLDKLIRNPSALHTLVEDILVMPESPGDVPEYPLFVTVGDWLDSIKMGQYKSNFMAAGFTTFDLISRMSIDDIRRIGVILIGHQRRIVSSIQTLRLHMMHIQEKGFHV

Sequence of EphA5 (Q60629 27-876): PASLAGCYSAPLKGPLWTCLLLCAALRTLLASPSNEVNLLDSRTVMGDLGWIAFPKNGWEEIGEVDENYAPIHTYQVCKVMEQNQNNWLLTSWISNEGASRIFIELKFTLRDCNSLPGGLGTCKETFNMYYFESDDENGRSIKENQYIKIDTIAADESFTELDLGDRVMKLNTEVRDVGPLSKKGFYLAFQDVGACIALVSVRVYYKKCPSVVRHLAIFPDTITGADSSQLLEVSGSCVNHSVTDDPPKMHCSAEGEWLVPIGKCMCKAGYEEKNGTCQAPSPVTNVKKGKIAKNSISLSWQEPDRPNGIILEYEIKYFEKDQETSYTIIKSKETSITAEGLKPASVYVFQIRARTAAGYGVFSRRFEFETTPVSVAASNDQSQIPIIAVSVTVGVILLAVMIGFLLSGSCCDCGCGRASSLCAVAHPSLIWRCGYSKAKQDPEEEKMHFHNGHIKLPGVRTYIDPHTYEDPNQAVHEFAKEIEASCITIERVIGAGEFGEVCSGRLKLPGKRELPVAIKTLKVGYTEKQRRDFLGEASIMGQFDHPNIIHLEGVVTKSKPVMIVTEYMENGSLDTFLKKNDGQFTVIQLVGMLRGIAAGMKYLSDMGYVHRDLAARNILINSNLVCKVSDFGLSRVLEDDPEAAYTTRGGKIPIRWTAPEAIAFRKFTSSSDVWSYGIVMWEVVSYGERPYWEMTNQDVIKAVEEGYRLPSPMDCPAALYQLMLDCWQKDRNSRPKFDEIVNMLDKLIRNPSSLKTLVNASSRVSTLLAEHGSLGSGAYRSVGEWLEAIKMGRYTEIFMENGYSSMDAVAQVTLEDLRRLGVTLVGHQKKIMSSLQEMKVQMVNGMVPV
Sequence of EphA7 (Q61772 28-998): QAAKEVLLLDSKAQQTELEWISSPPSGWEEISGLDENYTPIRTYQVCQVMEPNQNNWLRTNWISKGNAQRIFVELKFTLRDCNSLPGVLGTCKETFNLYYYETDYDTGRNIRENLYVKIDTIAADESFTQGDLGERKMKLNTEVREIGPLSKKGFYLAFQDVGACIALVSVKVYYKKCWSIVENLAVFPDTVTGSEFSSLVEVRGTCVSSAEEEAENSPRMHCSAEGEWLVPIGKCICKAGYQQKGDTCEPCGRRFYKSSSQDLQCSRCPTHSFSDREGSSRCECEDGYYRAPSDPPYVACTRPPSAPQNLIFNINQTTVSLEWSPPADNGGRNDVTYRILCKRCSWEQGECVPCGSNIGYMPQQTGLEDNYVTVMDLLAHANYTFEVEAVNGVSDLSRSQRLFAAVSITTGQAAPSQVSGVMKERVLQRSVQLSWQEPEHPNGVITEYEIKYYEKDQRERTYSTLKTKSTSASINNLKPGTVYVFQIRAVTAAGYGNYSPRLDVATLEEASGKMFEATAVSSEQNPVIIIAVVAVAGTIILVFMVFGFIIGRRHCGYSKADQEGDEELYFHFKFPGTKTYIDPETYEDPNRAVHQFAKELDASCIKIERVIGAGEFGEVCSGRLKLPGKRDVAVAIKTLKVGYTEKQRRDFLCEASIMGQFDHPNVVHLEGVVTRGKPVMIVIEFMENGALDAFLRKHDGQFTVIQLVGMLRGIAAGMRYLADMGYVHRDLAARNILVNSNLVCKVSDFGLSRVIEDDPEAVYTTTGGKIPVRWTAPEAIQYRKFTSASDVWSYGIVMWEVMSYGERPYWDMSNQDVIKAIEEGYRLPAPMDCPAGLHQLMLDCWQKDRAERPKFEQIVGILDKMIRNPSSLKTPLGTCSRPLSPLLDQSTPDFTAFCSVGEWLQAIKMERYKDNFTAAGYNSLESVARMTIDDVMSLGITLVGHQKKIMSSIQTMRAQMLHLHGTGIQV

Row | Compound | maximal number of non-redundant peptides identified, EphA5 (EphA5) | maximal number of non-redundant peptides identified, EphA7 (EphA7) | inhibition of autophosphorylation of TAP-tagged Eph kinases in cells (TAP-tagged Eph kinases) | maximal number of non-redundant peptides identified, EphB1 (EphB1) | maximal number of non-redundant peptides identified, EphA6 (EphA6)
1 | CC(C)[C@H](CO)Nc1nc(Nc2ccc(C(=O)O)c(Cl)c2)c2ncn(C(C)C)c2n1 [Purvalanol B] | 5 | 4 |  |  | 
2 | CSc1cccc(Nc2ncc3cc(-c4c(Cl)cccc4Cl)c(=O)n(C)c3n2)c1 [PD173955] | 4 | 7 | potent inhibitors | 5 | 7
